Data as given in EP2890687B1, “SALTS OF BENZOTHIAZOLONE COMPOUND AS BETA-2-ADRENOCEPTOR AGONIST” (priority 2012, dated 2014).
pEC50: −log10 of the molar value. Converted amounts (≈) assume the structure as drawn. Read-outs that look alike come from different tables or passages of the source.

Tests used:
human 5-HT2C receptor = molecular target: T1, human 5-HT2C receptor (Homo sapiens, UniProt P28335); assay: 3H-Mesulergine binding to hr5-HT2C CHO cell membranes; conditions: 3H-Mesulergine 1 nM, kind of constant not stated
T1 construct: purchased Biosignal Packard, USA; host or cells: CHO cell membranes
T1 sequence (P28335 33-458): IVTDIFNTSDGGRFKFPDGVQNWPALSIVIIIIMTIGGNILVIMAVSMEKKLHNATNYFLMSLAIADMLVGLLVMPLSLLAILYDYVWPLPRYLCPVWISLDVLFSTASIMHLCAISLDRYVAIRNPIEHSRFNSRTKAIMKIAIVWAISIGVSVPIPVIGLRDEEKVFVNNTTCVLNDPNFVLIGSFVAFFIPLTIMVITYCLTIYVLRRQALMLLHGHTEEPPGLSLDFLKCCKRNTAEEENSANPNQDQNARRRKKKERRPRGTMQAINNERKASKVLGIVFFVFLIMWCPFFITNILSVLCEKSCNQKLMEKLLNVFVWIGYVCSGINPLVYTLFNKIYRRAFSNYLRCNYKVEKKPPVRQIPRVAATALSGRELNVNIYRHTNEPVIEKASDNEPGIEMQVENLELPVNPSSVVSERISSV
Procedure: Non-specific binding is evaluated in the presence of 1 µM Mesulergine. Fifty µL each of membrane, ligand and compound in a total volume of 250 µL are incubated in 96-well plates for 60 min at 22° C in a buffer containing 50 mM Tris, 0.1% ascorbic acid, 10 µM Pargyline, pH 7.7. The plates are filtrated, washed 3 times in ice-cold 50 mM Tris, dred and measured in Topcount.

β2 AR = β2 AR (Homo sapiens, UniProt P07550); assay: cAMP functional assay in CHO cells stably transfected with human β2 adrenoceptor (Test 1); conditions: for Emax: CHO, read-out: CHO cells Emax % β2 AR, cAMP, compared to isoprenaline; for pEC50: CHO cells EC50 β2 AR, cAMP, CHO cells stably transfected with human β2 adrenoceptor
Chain of β2 AR (P07550 whole entry): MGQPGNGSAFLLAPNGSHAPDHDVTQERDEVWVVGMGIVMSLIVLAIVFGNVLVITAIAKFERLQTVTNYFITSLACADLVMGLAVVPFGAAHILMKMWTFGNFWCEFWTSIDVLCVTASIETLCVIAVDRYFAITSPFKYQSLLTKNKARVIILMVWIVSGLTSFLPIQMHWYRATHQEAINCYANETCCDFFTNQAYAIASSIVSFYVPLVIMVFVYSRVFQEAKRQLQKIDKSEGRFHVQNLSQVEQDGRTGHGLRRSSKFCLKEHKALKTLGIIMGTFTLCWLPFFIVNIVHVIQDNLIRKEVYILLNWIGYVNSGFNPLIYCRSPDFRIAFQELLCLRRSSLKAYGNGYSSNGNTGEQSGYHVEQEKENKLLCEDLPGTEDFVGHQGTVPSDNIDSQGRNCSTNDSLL

Serotonin 5-HT2C = molecular target: T2, Serotonin 5-HT2C (Homo sapiens, UniProt P28335); assay: Aequorin agonist assay in CHO-K1 cells expressing recombinant Serotonin 5-HT2Cne and Gα16; assay type: cell-based; conditions: for Emax: CHO-K1, percentage of the activity of the reference agonist at its EC100
T2 construct: expressed in transfected cells; host or cells: CHO-K1 coexpressing mitochondrial apoaequorin and Gα16
T2 sequence (P28335 33-458): T1 sequence (P28335 33-458)

β1 AR = β1 AR (Homo sapiens, UniProt P08588); assay: cAMP functional assay in CHO cells stably transfected with human β1 adrenoceptor (Test 1); conditions: for Emax: CHO, read-out: CHO cells Emax % β1 AR
Chain of β1 AR (P08588 whole entry): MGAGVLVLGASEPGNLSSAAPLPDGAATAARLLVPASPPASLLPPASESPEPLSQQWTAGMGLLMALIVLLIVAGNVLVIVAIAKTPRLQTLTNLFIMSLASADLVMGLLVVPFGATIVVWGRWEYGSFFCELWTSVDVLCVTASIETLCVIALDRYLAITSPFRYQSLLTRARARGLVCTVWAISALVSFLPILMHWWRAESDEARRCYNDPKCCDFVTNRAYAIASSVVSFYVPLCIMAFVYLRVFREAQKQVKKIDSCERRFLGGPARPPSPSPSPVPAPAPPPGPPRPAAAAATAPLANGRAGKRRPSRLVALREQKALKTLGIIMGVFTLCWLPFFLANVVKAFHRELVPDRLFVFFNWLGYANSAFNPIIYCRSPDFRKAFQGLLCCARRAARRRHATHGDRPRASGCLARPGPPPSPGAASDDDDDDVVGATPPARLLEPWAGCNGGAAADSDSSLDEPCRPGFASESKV

Human skMC = assay: cAMP response in primary human skeletal muscle cells (differentiated skeletal myotubes); conditions: read-out: Primary cells; for pEC50: cAMP response EC50 Human skMC, differentiated skeletal myotubes; for Emax: cAMP response Emax % Human skMC
[1] = Comparative solubility in H2O with pH adjustment by HCl or NaOH; assay type: physicochemical; conditions: water, read-out: solubility in H2O, Conc
Procedure: The relative solubilities of the free base form and the acetate and glycolate salt forms of Compound A were analysed and the results are show in the table below. Solutions were titrated with addition of HCl or NaOH for pH adjustment. The improved aqueous solubilities of the acetate and glycolate salt forms relative to the free base form of Compound A make the acetate and glycolate salts of Compound A more suitable for subcutaneous injection or infusion.

[2] = system: skeletal muscle and heart; conditions: rats
[3] = Steady state plasma concentration in the rat minipump study; assay type: in vivo, Male Wistar Han IGS rats; conditions: rats
Procedure: Rats were acclimated to the facility for 7 days. […] Food and water were provided ad libitum. […] Body weights were measured twice per week. […] Brain weight was used for normalization of organ weights. Results are expressed as mean +/-SEM.

[4] = system: isolated Langendorff perfused rabbit hearts; assay: Automaticity in isolated Langendorff perfused rabbit hearts
Rhesus monkeys = assay: Heart rate in rhesus monkeys after single s.c. administration; assay type: in vivo; conditions: s.c. bolus, up to 0.03 mg/kg, Figures 4a, 4b
Procedure: Rhesus monkeys, 24 females with body weight around 4 to 8 kg, were randomized into 4 groups of n=6. The animals were restrained on a chair up to 4 hours after single subcutaneous administration of compounds, and then returned to their pens. Heart rates were measured using a Surgivet V3304 device. Values are expressed as means ± SEM (n=6).

Rat cardiomyocytes = assay: cAMP response in primary rat cardiomyocytes; conditions: Cardiomyocyte
Rat skMC = assay: cAMP response in primary rat skeletal muscle cells
rats = assay: Heart rate in rats after s.c. bolus; assay type: in vivo, Wistar Han (W-H) IGS rats; conditions: up to 0.3 mg/kg, Figures 3a-3c
From the text: Wistar Han (W-H) IGS (International Genetic Standard) rats (Crl:WI(Han)) were purchased from Charles River Laboratories. Femoral arterial and venous catheters were chronically implanted and exteriorized through a spring tether-swivel system and housed in specialized cages. Arterial catheter was connected to a pressure transducer to continuously measure pulse pressure, mean arterial pressure and heart rate, which was derived from the blood pressure signal, via a digital data acquisition system. Compounds were administered via s.c catheter implanted through the skin buttun. Values are expressed as means ± SEM (n=3).

Adrenergic beta1 = Adrenergic beta1 (Cavia porcellus, UniProt H0W3H1); assay: Left atrium contraction assay (Ricerca, Adrenergic beta1); set-up: species or system Dunkin Hartley Guinea pig
Chain of Adrenergic beta1 (H0W3H1 1-470): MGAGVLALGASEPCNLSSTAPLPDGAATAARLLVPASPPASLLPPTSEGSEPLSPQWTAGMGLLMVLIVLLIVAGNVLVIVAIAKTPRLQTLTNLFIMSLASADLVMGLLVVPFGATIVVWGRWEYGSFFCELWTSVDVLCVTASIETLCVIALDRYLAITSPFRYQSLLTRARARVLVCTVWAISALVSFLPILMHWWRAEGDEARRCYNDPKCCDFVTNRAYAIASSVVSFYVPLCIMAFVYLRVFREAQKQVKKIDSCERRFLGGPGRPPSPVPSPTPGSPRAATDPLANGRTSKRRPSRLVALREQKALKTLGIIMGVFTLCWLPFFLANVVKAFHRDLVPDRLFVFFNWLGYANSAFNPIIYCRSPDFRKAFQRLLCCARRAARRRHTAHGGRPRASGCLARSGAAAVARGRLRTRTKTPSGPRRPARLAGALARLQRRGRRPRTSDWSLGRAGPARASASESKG

Sino-Atrial node = Sino-Atrial node beating rate in isolated rabbit right atrium; set-up: species or system New Zealand white female rabbits; conditions: n=6
α1A AR = molecular target: T3, α1A AR (Homo sapiens, UniProt P35348); assay: Ca2+ FLIPR assay in human adrenergic Alpha1A CHO-K1 cell line (Test 1); assay type: cell-based; conditions: summary in words
T3 construct: host or cells: CHO-K1
T3 sequence (P35348 1-466): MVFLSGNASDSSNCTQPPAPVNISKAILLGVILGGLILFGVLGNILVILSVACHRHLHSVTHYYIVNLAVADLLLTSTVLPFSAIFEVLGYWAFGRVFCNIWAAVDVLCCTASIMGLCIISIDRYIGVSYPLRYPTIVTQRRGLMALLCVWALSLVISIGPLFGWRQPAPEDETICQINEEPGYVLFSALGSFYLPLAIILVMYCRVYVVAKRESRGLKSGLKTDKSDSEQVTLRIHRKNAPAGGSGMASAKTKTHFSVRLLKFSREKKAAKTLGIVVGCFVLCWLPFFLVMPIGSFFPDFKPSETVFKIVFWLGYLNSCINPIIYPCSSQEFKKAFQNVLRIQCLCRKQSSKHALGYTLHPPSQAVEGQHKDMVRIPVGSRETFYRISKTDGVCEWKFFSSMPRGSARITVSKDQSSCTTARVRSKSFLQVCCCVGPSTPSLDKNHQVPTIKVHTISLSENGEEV

[5] = Homo sapiens, Myotube, compared to formoterol

## CCCCOc1ccc(CC(C)(C)NCC(O)c2cc(O)cc3[nH]c(=O)sc23)cc1 (racemic) [Compound A/B]
Human 5-HT2C receptor
  Serotonin 5-HT2C Binding: 1.7 µM
β2 AR
  Emax: 87%
Serotonin 5-HT2C
  Emax: 113%
β1 AR
  Emax: 38%
Human skMC; Homo sapiens, Myotube
  pEC50: 9.20
Human skMC; [5]
  Emax: 100%

## CCCCOc1ccc(CC(C)(C)NC[C@H](O)c2cc(O)cc3[nH]c(=O)sc23)cc1.O=C(O)CO [Compound A glycolate salt, (R)-7-(2-(1-(4-butoxyphenyl)-2-methylpropan-2-ylamino)-1-hydroxyethyl)-5-hydroxybenzo[d]thiazol-2(3H)-one glycolate salt]
[1]; pH 5.1, aqueous buffer
  solubility: 13100 µg/mL
[1]; pH 5.3, aqueous buffer
  solubility: 6390 µg/mL
[1]; pH 5.4, aqueous buffer
  solubility: 4470 µg/mL

## CCCCOc1ccc(CC(C)(C)NC[C@@H](O)c2cc(O)cc3[nH]c(=O)sc23)cc1 [Compound B]
Human 5-HT2C receptor
  Serotonin 5-HT2C Binding: 0.8 µM
β2 AR
  Emax: 83%
Serotonin 5-HT2C
  Emax: 99%
Human skMC; Homo sapiens, Myotube
  pEC50: 6.55
Human skMC; [5]
  Emax: 100%

## CC(=O)O.CCCCOc1ccc(CC(C)(C)NC[C@H](O)c2cc(O)cc3[nH]c(=O)sc23)cc1 [Compound A (R) acetate salt, (R)-7-(2-(1-(4-butoxyphenyl)-2-methylpropan-2-ylamino)-1-hydroxyethyl)-5-hydroxybenzo[d]thiazol-2(3H)-one acetate salt]
[1]; aqueous buffer, pH 6.0
  solubility: 1110 µg/mL
[1]; pH 5.9, aqueous buffer
  solubility: 1330 µg/mL
[1]; pH 6.1, aqueous buffer
  solubility: 1100 µg/mL
[1]; pH 6.2, aqueous buffer
  solubility: 550 µg/mL
β2 AR
  pEC50: 8.60
Human skMC; Homo sapiens, Myotube, compared to isoprenaline
  Emax: 93%
Human skMC; acetate salt
  pEC50: 8.77

## CCCCOc1ccc(CC(C)(C)NC[C@H](O)c2cc(O)cc3[nH]c(=O)sc23)cc1 [Compound A, (R)-7-(2-(1-(4-butoxyphenyl)-2-methylpropan-2-ylamino)-1-hydroxyethyl)-5-hydroxybenzo[d]thiazol-2(3H)-one]
[2]; 0.01 mg/kg/day s.c. minipump, 28 days, significant
  skeletal muscle hypertrophy: 11%
[2]; even at 0.1 mg/kg/day s.c. minipump, 28 days
  heart histopathology: no findings
[2]; s.c. minipump 28 days, formoterol 0.003-0.03, Compound A 0.01-0.1 mg/kg/day
  skeletal muscle mass and heart mass increase (Figure 1): induces skeletal muscle hypertrophy with minimum impact on heart mass
Human 5-HT2C receptor
  Serotonin 5-HT2C Binding: 11 µM
[3]; 0.01 mg/kg/day s.c. minipump
  steady state plasma concentration: ~ 0.2 nM
[3]; 0.1 mg/kg/day s.c. minipump
  steady state concentration: ~ 2 nM
[4]; compared to Formoterol, Figures 2a, 2b
  effects on the pacemaker activity: less direct effects
[4]; isolated rabbit heart, n=3
  Automaticity, maximum increase: +17%
[1]; aqueous buffer, pH 7.0
  solubility: 50 µg/mL (≈ 116 µM)
[1]; pH 6.2, aqueous buffer
  solubility: 270 µg/mL (≈ 627 µM)
[1]; pH 7.3, aqueous buffer
  solubility: < 10 µg/mL
[1]; pH 7.8, aqueous buffer
  solubility: < 10 µg/mL
Rhesus monkeys
  heart rate change: less heart rate increase compared to formoterol
β2 AR
  pEC50: 8.25
  Emax: 88%
Rat cardiomyocytes; read-out: Primary cells, cAMP response EC50 Rat cardiomyocytes
  pEC50: 8.24
Rat cardiomyocytes; read-out: Primary cells, cAMP response Emax % Rat cardiomyocytes
  Emax: 71%
Rat skMC; Myotube, read-out: Primary cells, cAMP response EC50 Rat skMC
  pEC50: 8.47
Rat skMC; read-out: Primary cells, cAMP response Emax % Rat skMC
  Emax: 98%
rats
  heart rate change: less heart rate increases compared to formoterol
Serotonin 5-HT2C
  fold less active on 5-HT2C compared to the racemate or the (S) enantiomer: over 10 fold
  Emax: 83%
Serotonin 5-HT2C; 5-HT2C EC50 versus β2 AR EC50 (5.6 nM)
  fold less active on 5-HT2C compared to β2 AR agonist activity: 50 fold
Serotonin 5-HT2C; agonist mode, aequorin luminescence
  pEC50: 6.55
Adrenergic beta1; guinea pig left atria, n=2
  pEC50: < 5.00
Adrenergic beta1; up to 10 µM
  effects on left atrium contraction: no effects
Sino-Atrial node
  Sino-Atrial node beating rate, maximum increase: +6.2%
α1A AR
  activity on α1A AR: no activity
β1 AR
  pEC50: 6.25
  Emax: 32%
β1 AR; summary in words
  intrinsic efficacy on β1 AR: very low intrinsic efficacy
Human skMC; [5]
  Emax: 96%
Human skMC; listed as Compound A (R)
  pEC50: 9.15
